From ChEMBL document CHEMBL4261593, “Synthesis and antibacterial activity of novel 3-O-arylalkylcarbamoyl-3-O-descladinosyl-9-O-(2-chlorobenzyl)oxime clarithromycin derivatives” (2018)
Converted amounts (≈) assume the structure as drawn.

How the values were obtained:
Assay type in all cases: functional
Streptococcus pyogenes [1] = assay: Antibacterial activity against erythromycin-susceptible Streptococcus pyogenes 1 after 24 hrs by broth dilution assay; conditions: Streptococcus pyogenes, 1, 24 h
Staphylococcus aureus [2] = assay: Antibacterial activity against erythromycin-susceptible Staphylococcus aureus ATCC 25923 after 24 hrs by broth dilution assay; conditions: ATCC 25923, 24 h
Escherichia coli = assay: Antibacterial activity against penicillin-susceptible Escherichia coli ATCC 25922 after 24 hrs by broth dilution assay; conditions: ATCC 25922, 24 h
Pseudomonas aeruginosa = assay: Antibacterial activity against penicillin-susceptible Pseudomonas aeruginosa ATCC 27853 after 24 hrs by broth dilution assay; conditions: ATCC 27853, 24 h
Bacillus subtilis = assay: Antibacterial activity against penicillin-susceptible Bacillus subtilis ATCC 9372 after 24 hrs by broth dilution assay; conditions: ATCC 9372, 24 h
Staphylococcus aureus [3] = assay: Antibacterial activity against […] Staphylococcus aureus ATCC 29213 after 24 hrs by broth dilution assay; conditions: ATCC 29213, 24 h
Staphylococcus aureus [4] = assay: Antibacterial activity against penicillin-resistant Staphylococcus aureus ATCC 31007 after 24 hrs by broth dilution assay; conditions: ATCC 31007, 24 h
Streptococcus pyogenes [5] = assay: Antibacterial activity against erythromycin-resistant Streptococcus pyogenes 2 after 24 hrs by broth dilution assay; conditions: Streptococcus pyogenes, 2, 24 h
Streptococcus pneumoniae [6] = assay: Antibacterial activity against erythromycin-resistant Streptococcus pneumoniae A22072 expressing mefA gene after 24 hrs by broth dilution assay; conditions: A22072, 24 h
Streptococcus pneumoniae [7] = assay: Antibacterial activity against erythromycin-resistant Streptococcus pneumoniae B1 expressing ermB gene after 24 hrs by broth dilution assay; conditions: B1, 24 h
Streptococcus pneumoniae [8] = assay: Antibacterial activity against erythromycin-resistant Streptococcus pneumoniae AB11 expressing ermB and mefA genes after 24 hrs by broth dilution assay; conditions: AB11, 24 h
Staphylococcus aureus [9] = assay: Potency index, ratio of CAM MIC to compound MIC for antibacterial activity against penicillin-resistant Staphylococcus aureus ATCC 31007
Staphylococcus aureus [10] = assay: Potency index, ratio of AZM MIC to compound MIC for antibacterial activity against penicillin-resistant Staphylococcus aureus ATCC 31007
Streptococcus pneumoniae [11] = assay: Potency index, ratio of CAM MIC to compound MIC for antibacterial activity against erythromycin-resistant Streptococcus pneumoniae A22072
Streptococcus pneumoniae [12] = assay: Potency index, ratio of AZM MIC to compound MIC for antibacterial activity against erythromycin-resistant Streptococcus pneumoniae A22072
Streptococcus pyogenes [13] = assay: Potency index, ratio of CAM MIC to compound MIC for antibacterial activity against erythromycin-resistant Streptococcus pyogenes 2
Streptococcus pyogenes [14] = assay: Potency index, ratio of AZM MIC to compound MIC for antibacterial activity against erythromycin-resistant Streptococcus pyogenes 2

Compound | MIC (Streptococcus pyogenes [1]) [µg/mL] | MIC (Staphylococcus aureus [2]) [µg/mL] | MIC (Escherichia coli) [µg/mL] | MIC (Pseudomonas aeruginosa) [µg/mL] | MIC (Bacillus subtilis) [µg/mL] | MIC (Staphylococcus aureus [3]) [µg/mL] | MIC (Staphylococcus aureus [4]) [µg/mL] | MIC (Streptococcus pyogenes [5]) [µg/mL] | MIC (Streptococcus pneumoniae [6]) [µg/mL] | MIC (Streptococcus pneumoniae [7]) [µg/mL] | MIC (Streptococcus pneumoniae [8]) [µg/mL] | Ratio (Staphylococcus aureus [9]) | Ratio (Staphylococcus aureus [10]) | Ratio (Streptococcus pneumoniae [11]) | Ratio (Streptococcus pneumoniae [12]) | Ratio (Streptococcus pyogenes [13]) | Ratio (Streptococcus pyogenes [14])
CC[C@H]1OC(=O)[C@H](C)[C@@H](OC(=O)NCc2ccccc2)[C@H](C)[C@@H](O[C@@H]2O[C@H](C)C[C@H](N(C)C)[C@H]2O)[C@](C)(OC)C[C@@H](C)/C(=N/OCc2ccccc2Cl)[C@H](C)[C@@H](O)[C@]1(C)O | 2 (≈ 2.32 µM) | 8 (≈ 9.28 µM) | 128 (≈ 148 µM) | 128 (≈ 148 µM) | 2 (≈ 2.32 µM) | 128 (≈ 148 µM) | 4 (≈ 4.64 µM) | 16 (≈ 18.6 µM) | 0.5 (≈ 0.58 µM) | 128 (≈ 148 µM) | 128 (≈ 148 µM) | 64 | 64 |  |  |  | 
CC[C@H]1OC(=O)[C@H](C)[C@@H](OC(=O)NC2CC2)[C@H](C)[C@@H](O[C@@H]2O[C@H](C)C[C@H](N(C)C)[C@H]2O)[C@](C)(OC)C[C@@H](C)/C(=N/OCc2ccccc2Cl)[C@H](C)[C@@H](O)[C@]1(C)O | 1 (≈ 1.23 µM) | 8 (≈ 9.85 µM) | 128 (≈ 158 µM) | 128 (≈ 158 µM) | 4 (≈ 4.92 µM) | 128 (≈ 158 µM) | 16 (≈ 19.7 µM) | 16 (≈ 19.7 µM) | 0.125 (≈ 0.154 µM) | 128 (≈ 158 µM) | 128 (≈ 158 µM) |  |  | 16 | 32 |  | 
CCCNC(=O)O[C@H]1[C@H](C)[C@@H](O[C@@H]2O[C@H](C)C[C@H](N(C)C)[C@H]2O)[C@](C)(OC)C[C@@H](C)/C(=N/OCc2ccccc2Cl)[C@H](C)[C@@H](O)[C@](C)(O)[C@@H](CC)OC(=O)[C@@H]1C | 1 (≈ 1.23 µM) | 8 (≈ 9.82 µM) | 128 (≈ 157 µM) | 128 (≈ 157 µM) | 2 (≈ 2.46 µM) | 128 (≈ 157 µM) | 16 (≈ 19.6 µM) | 8 (≈ 9.82 µM) | 0.125 (≈ 0.153 µM) | 128 (≈ 157 µM) | 128 (≈ 157 µM) |  |  | 16 | 32 | 32 | 32
CC[C@H]1OC(=O)[C@H](C)[C@@H](OC(=O)NCCc2ccccc2Cl)[C@H](C)[C@@H](O[C@@H]2O[C@H](C)C[C@H](N(C)C)[C@H]2O)[C@](C)(OC)C[C@@H](C)/C(=N/OCc2ccccc2Cl)[C@H](C)[C@@H](O)[C@]1(C)O | 2 (≈ 2.2 µM) | 8 (≈ 8.78 µM) | 128 (≈ 141 µM) | 128 (≈ 141 µM) | 2 (≈ 2.2 µM) | 128 (≈ 141 µM) | 8 (≈ 8.78 µM) | 16 (≈ 17.6 µM) | 1 (≈ 1.1 µM) | 128 (≈ 141 µM) | 128 (≈ 141 µM) |  |  |  |  |  | 
CC[C@H]1OC(=O)[C@H](C)[C@@H](O)[C@H](C)[C@@H](O[C@@H]2O[C@H](C)C[C@H](N(C)C)[C@H]2O)[C@](C)(OC)C[C@@H](C)/C(=N/OCc2ccccc2Cl)[C@H](C)[C@@H](O)[C@]1(C)O | 4 (≈ 5.48 µM) | 64 (≈ 87.7 µM) | 128 (≈ 175 µM) | 128 (≈ 175 µM) | 16 (≈ 21.9 µM) | 128 (≈ 175 µM) | 32 (≈ 43.9 µM) | 128 (≈ 175 µM) | 4 (≈ 5.48 µM) | 128 (≈ 175 µM) | 128 (≈ 175 µM) |  |  |  |  |  | 
CCCCNC(=O)O[C@H]1[C@H](C)[C@@H](O[C@@H]2O[C@H](C)C[C@H](N(C)C)[C@H]2O)[C@](C)(OC)C[C@@H](C)/C(=N/OCc2ccccc2Cl)[C@H](C)[C@@H](O)[C@](C)(O)[C@@H](CC)OC(=O)[C@@H]1C | 1 (≈ 1.21 µM) | 4 (≈ 4.83 µM) | 128 (≈ 154 µM) | 128 (≈ 154 µM) | 2 (≈ 2.41 µM) | 128 (≈ 154 µM) | 8 (≈ 9.66 µM) | 8 (≈ 9.66 µM) | 0.5 (≈ 0.604 µM) | 128 (≈ 154 µM) | 128 (≈ 154 µM) |  |  |  |  | 32 | 32
CC[C@H]1OC(=O)[C@H](C)[C@@H](OC(=O)NCc2ccc(Cl)cc2)[C@H](C)[C@@H](O[C@@H]2O[C@H](C)C[C@H](N(C)C)[C@H]2O)[C@](C)(OC)C[C@@H](C)/C(=N/OCc2ccccc2Cl)[C@H](C)[C@@H](O)[C@]1(C)O | 2 (≈ 2.23 µM) | 8 (≈ 8.92 µM) | 128 (≈ 143 µM) | 128 (≈ 143 µM) | 2 (≈ 2.23 µM) | 128 (≈ 143 µM) | 4 (≈ 4.46 µM) | 8 (≈ 8.92 µM) | 0.5 (≈ 0.557 µM) | 128 (≈ 143 µM) | 128 (≈ 143 µM) | 64 | 64 |  |  | 32 | 32
CC[C@H]1OC(=O)[C@H](C)[C@@H](OC(=O)NCCc2ccc(O)cc2)[C@H](C)[C@@H](O[C@@H]2O[C@H](C)C[C@H](N(C)C)[C@H]2O)[C@](C)(OC)C[C@@H](C)/C(=N/OCc2ccccc2Cl)[C@H](C)[C@@H](O)[C@]1(C)O | 0.5 (≈ 0.56 µM) | 4 (≈ 4.48 µM) | 128 (≈ 143 µM) | 128 (≈ 143 µM) | 1 (≈ 1.12 µM) | 128 (≈ 143 µM) | 4 (≈ 4.48 µM) | 8 (≈ 8.96 µM) | 0.25 (≈ 0.28 µM) | 128 (≈ 143 µM) | 128 (≈ 143 µM) |  |  |  |  | 32 | 32
CC[C@H]1OC(=O)[C@H](C)[C@@H](OC(=O)NCc2cccc(F)c2)[C@H](C)[C@@H](O[C@@H]2O[C@H](C)C[C@H](N(C)C)[C@H]2O)[C@](C)(OC)C[C@@H](C)/C(=N/OCc2ccccc2Cl)[C@H](C)[C@@H](O)[C@]1(C)O | 1 (≈ 1.14 µM) | 4 (≈ 4.54 µM) | 128 (≈ 145 µM) | 128 (≈ 145 µM) | 2 (≈ 2.27 µM) | 128 (≈ 145 µM) | 4 (≈ 4.54 µM) | 8 (≈ 9.09 µM) | 0.5 (≈ 0.568 µM) | 128 (≈ 145 µM) | 128 (≈ 145 µM) | 64 | 64 |  |  | 32 | 32
CC[C@H]1OC(=O)[C@H](C)[C@@H](O[C@H]2C[C@@](C)(OC)[C@@H](O)[C@H](C)O2)[C@H](C)[C@@H](O[C@@H]2O[C@H](C)C[C@H](N(C)C)[C@H]2O)[C@](C)(O)C[C@@H](C)CN(C)[C@H](C)[C@@H](O)[C@]1(C)O [AZITHROMYCIN] | 0.03 (≈ 0.0401 µM) | 0.25 (≈ 0.334 µM) | 8 (≈ 10.7 µM) | 16 (≈ 21.4 µM) | 0.5 (≈ 0.668 µM) | 8 (≈ 10.7 µM) | 256 (≈ 342 µM) | 256 (≈ 342 µM) | 4 (≈ 5.34 µM) | 128 (≈ 171 µM) | 128 (≈ 171 µM) |  |  |  |  |  | 
CC[C@H]1OC(=O)[C@H](C)[C@@H](O[C@H]2C[C@@](C)(OC)[C@@H](O)[C@H](C)O2)[C@H](C)[C@@H](O[C@@H]2O[C@H](C)C[C@H](N(C)C)[C@H]2O)[C@](C)(OC)C[C@@H](C)C(=O)[C@H](C)[C@@H](O)[C@]1(C)O [CLARITHROMYCIN] | 0.03 (≈ 0.0401 µM) | 0.25 (≈ 0.334 µM) | 32 (≈ 42.8 µM) | 32 (≈ 42.8 µM) | 0.25 (≈ 0.334 µM) | 64 (≈ 85.6 µM) | 256 (≈ 342 µM) | 256 (≈ 342 µM) | 2 (≈ 2.67 µM) | 128 (≈ 171 µM) | 128 (≈ 171 µM) |  |  |  |  |  | 
